Data from paper PMC9969401, “Discovery of 2-(3-Benzamidopropanamido)thiazole-5-carboxylate Inhibitors of the Kinesin HSET (KIFC1) and the Development of Cellular Target Engagement Probes” (Journal of Medicinal Chemistry, 2023).
pIC50: −log10 of the molar value. Read-outs that look alike come from different tables or passages of the source. Values belong to the molecule of their own block, whether it stands above or below them.

Columns and labels:
[1] = biological target: T1, recombinant full-length HSET (Homo sapiens, UniProt Q9BW19); assay: ADP-Glo HSET assay (3 μM ATP), microtubule-stimulated ATPase; assay type: biochemical
T1 construct: 5 nM full-length human N-terminal His-tag HSET; His-tag (N)
T1 sequence (Q9BW19 1-673): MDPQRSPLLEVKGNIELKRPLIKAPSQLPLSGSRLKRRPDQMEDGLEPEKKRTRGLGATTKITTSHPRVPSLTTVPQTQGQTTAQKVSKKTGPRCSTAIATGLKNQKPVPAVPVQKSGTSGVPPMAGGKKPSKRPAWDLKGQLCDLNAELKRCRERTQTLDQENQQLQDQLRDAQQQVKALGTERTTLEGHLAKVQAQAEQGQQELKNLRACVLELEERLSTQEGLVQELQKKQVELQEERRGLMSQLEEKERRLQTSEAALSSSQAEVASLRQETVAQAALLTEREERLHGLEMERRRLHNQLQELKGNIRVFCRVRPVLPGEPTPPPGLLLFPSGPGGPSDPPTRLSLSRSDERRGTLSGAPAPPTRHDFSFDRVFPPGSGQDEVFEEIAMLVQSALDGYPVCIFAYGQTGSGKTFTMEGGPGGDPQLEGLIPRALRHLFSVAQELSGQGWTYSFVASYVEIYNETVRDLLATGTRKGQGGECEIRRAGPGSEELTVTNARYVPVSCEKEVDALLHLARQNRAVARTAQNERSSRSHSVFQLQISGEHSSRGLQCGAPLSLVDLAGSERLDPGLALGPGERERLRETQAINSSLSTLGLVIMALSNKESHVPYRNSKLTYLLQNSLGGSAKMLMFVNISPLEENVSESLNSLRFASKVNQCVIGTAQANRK
Protocol: (§1) The HSET or Eg5 ATPase activity was measured using the ADP-Glo Kinase Assay kit (Promega, V9102). The assays were run using final concentrations of 5 nM full-length human N-terminal His-tag HSET or 4 nM GST-tagged Eg5 motor domain protein (Cytoskeleton, EG01) and an assay buffer containing 20 mM HEPES pH 6.8, 10 mM MgCl2, 0.25 mM EGTA, 0.4 mM Triton X-100, and 1 mM DTT. Preformed microtubules (Universal Biologicals Cambridge, bovine MT001-XL, or porcine MT002-XL), which were reconstituted in 15 mM PIPES pH 7, 1 mM MgCl2, and 20 μM paclitaxel, were present at a final assay concentration of 70 μg/mL. A reaction volume of 5 μL was used in Proxiplate 384 plus white assay plates (PerkinElmer, 6008280). To measure compound inhibition, 100 nL of compound dissolved in DMSO or DMSO alone was preincubated with the HSET and microtubules for 10 min before 3 μM Ultra-Pure ATP was added to start the ATPase reaction for the 3 μM ATP HSET assay. For the 500 μM ATP HSET assay, the addition of 500 μM Ultra-Pure ATP was used. For the Eg5 ATPase assay, 4.8 μM Ultra-Pure ATP was used. All reactions were incubated at 25 °C for 80 min and then stopped by the addition of 5 μL of the ADP-Glo reagent. 10 μL of Kinase Detection Reagent was then added after a further 45 min of incubation. The luminescence was read after 45 min on a PheraStar FSX plate reader (BMG Labtech). The data processing was performed using Dotmatics Studies software package. Percentage inhibition was determined based on normalization to high controls (0% inhibition, all reagents with 100 nL of DMSO alone) and low controls (100% inhibition […], without HSET). The IC50 values for each compound were determined using a four-parameter logistic curve fit of % inhibition versus concentration.

[2] = biological target: T2, GST-tagged Eg5 motor domain (Homo sapiens, UniProt P52732); assay: ADP-Glo Eg5 assay (4.8 μM ATP); assay type: biochemical; conditions: for pIC50: preformed microtubules, 4.8 μM ATP (Table 4)
T2 construct: 4 nM GST-tagged Eg5 motor domain protein (Cytoskeleton, EG01); purchased Cytoskeleton EG01
T2 sequence (P52732 18-359 limits assumed): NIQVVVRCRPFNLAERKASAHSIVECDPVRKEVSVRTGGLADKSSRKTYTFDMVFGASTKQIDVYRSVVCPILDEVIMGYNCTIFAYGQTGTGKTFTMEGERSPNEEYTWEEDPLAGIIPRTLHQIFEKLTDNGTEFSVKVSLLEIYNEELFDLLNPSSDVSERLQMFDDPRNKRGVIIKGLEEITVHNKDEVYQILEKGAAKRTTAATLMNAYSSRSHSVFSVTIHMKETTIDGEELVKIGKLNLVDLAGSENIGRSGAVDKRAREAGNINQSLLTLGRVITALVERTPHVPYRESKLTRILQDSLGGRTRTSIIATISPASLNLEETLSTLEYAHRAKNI
Protocol: as §1

[3] = system: centrosome-amplified (4NCA) DLD1 cells; assay: Multipolar spindle assay (4NCA cell line); assay type: cell-based, human
Source text: (§2) The cellular models consisted of chromosomally stable human colon cancer DLD1 diploid (2N) and tetraploid (4N) cells, along with tetraploid centrosome -amplified (4NCA) DLD1 cells and DLD1 HSET knockout (KO) cells. DLD1 2N and 4N cells were generated and characterized as previously described.[27],[41],[42] In order to generate 4NCA cells, we used dihydro-cytochalasin B (DCB) to transiently block cytokinesis and induce tetraploidisation and centrosome amplification in DLD1 cells. Centrosome amplification in 4NCA cells is transient and therefore they were generated from 2N cells for each run of the assay.[27] The DLD1 HSET KO cells were knockout clones generated by CRISPR and validated by sequencing to have a homozygous deletion in the KIFC1 gene.
(§3) Inhibition of HSET-mediated clustering was measured using a phenotypic assay measuring the formation of multipolar metaphase spindles in DLD1 cells with (4NCA) or without (4N) centrosome amplification. 4NCA cells were generated by treating 2N DLD1 cells with 2 μΜ DCB for 24 h, washed, and released in growth media for 24 h. 4N and 4NCA DLD1 cells were plated in 96-well ibidi μ-Clear plates (IB-89626, ibidi) with a no. 1.5 polymer coverslip bottom with optimal imaging properties. To enrich the mitotic population, cells were first treated for 3.5 h with 8 μM pro-TAME (I-440-01M, R&D system), an inhibitor of APC/C that transiently arrests cells in metaphase without affecting the structure of the spindle. Following the initial arrest, cells were treated with HSET compounds in the presence of 8 μM MG-132 (S2619, SelleckChem), a proteasome inhibitor that helps to maintain the metaphase arrest, where the number of spindle poles/cell can be optimally quantified by an automated segmentation analysis.
(§4) Cells were then fixed in methanol and stained for 3 h for mitotic pole marker aurora A (1:1000 610939 mouse anti-IAK1, BD Biosciences) and phosphorylated histone H3 (1:1500 ab47297 anti-histone H3 pS10, Abcam) as a marker of mitotic cells in 1.5% FBS in PBS. Following primary antibody treatment, cells were incubated with secondary antibodies Alexa Fluor 488 goat antimouse and Alexa Fluor 555 goat antirabbit (1:1500, A11029 and A21429, respectively, Life Technologies) together with 1 μg/mL DAPI (D9542, Sigma) in 1.5% FBS in PBS. Image acquisition was performed at 10× using the GE INCELL 2200 High Content Imaging System (Cytiva) and analyzed using the InCell Investigator software. Mitotic cells were identified by high pHH3 staining and were scored as multipolar if they had more than two mitotic spindle poles. The percentage of multipolar mitoses was calculated by dividing the number of multipolar mitoses by the total of all visible mitoses in one well of a 96-well plate (n > 100 for each replicate, two replicates per concentration point).

[4] = system: non-centrosome amplified DLD1 (4N) cells; assay: Multipolar spindle assay (4N cell line); assay type: cell-based, human; conditions: for % Multipolarity above baseline @ 15 mM (4N cells): supplementary CSV; for % multipolarity above baseline @ 15 μM (4N cells): 4N DLD1 cells (Table 4)
Source text: as §2, §3, §4

[5] = Kinetic aqueous solubility (KSol), HPLC-UV; assay type: physicochemical; conditions: PBS buffer pH 7.4, 100 μM solution with 1% DMSO, HPLC with UV detection
[6] = LE = −1.4Log(IC50 [M])/number of non-hydrogen atoms (Table 1)
[7] = LLE = −Log(IC50 [M]) – cLogP (MoKa) (Table 1)
[8] = preformed microtubules, 3 μM ATP, mean (±SD) n ≥ 3 (Table 4), read-out: HSET ADP-Glo IC50
[9] = preformed microtubules, 3 μM ATP, mean (±SD) n ≥ 3, >200 from a single determination (Table 1), read-out: HSET ADP-Glo IC50
[10] = 15 μM, 4NCA DLD1 cells (Table 4)
[11] = 15 µM, 4NCA cells, supplementary CSV
[12] = preformed microtubules, 3 μM ATP, mean (±SD) n ≥ 3 (37 n = 2, 38 single determination) (Table 3), read-out: HSET ADP-Glo IC50

pIC50 [1, 12]: 7.89
KSol data [5]: >90 µM
Compound: CCCOC(=O)c1sc(NC(=O)C[C@H](CCCN)NC(=O)c2cccc(-c3noc(C)n3)c2)nc1C [Compound 33, Propyl (S)-2-(6-Amino-3-(3-(5-methyl-1,2,4-oxadiazol-3-yl)benzamido)hexanamido)-4-methylthiazole-5-carboxylate]

pIC50 [1, 12]: 6.59
KSol data [5]: >90 µM
Compound: CCCOC(=O)c1sc(NC(=O)C[C@@H](CCCNC)NC(=O)c2cccc(-c3noc(C)n3)c2)nc1C [Compound 34, Propyl (R)-4-Methyl-2-(3-(3-(5-methyl-1,2,4-oxadiazol-3-yl)benzamido)-6-(methylamino)hexanamido)thiazole-5-carboxylate]

pIC50 [1, 12]: 6.97
KSol data [5]: 53 µM
Compound: CCCOC(=O)c1sc(NC(=O)C[C@H](CCCN(C)CCOCCOCCNC(=O)O[C@@H]2CC/C=C/CCC2)NC(=O)c2cccc(-c3noc(C)n3)c2)nc1C [Compound 39, Propyl 2-((S)-1-(((S,E)-Cyclooct-4-en-1-yl)oxy)-11-methyl-15-(3-(5-methyl-1,2,4-oxadiazol-3-yl)benzamido)-1-oxo-5,8-dioxa-2,11-diazaheptadecan-17-amido)-4-methylthiazole-5-carboxylate]

LE ([1]; LE = −1.4Log(IC50 [M])/number of non-hydrogen atoms (Table 2)): 0.29
LLE ([1]; LLE = −Log(IC50 [M]) – cLogP (MoKa) (Table 2)): 3.9
pIC50 ([1]; preformed microtubules, 3 μM ATP, mean (±SD) n ≥ 3, >200 from a single determination (Table 2), read-out: HSET ADP-Glo IC50): 6.39
fold reduction in HSET potency ([1]; relative to 13): six-fold
Compound: CCOC(=O)c1sc(C(=O)NCCNC(=O)c2cccc(-c3noc(C)n3)c2)nc1C [Compound 25, Ethyl 4-Methyl-2-((2-(3-(5-methyl-1,2,4-oxadiazol-3-yl)benzamido)ethyl)carbamoyl)thiazole-5-carboxylate]

The next lines start with the molecule.

Compound: CCOC(=O)c1sc(NC(=O)CCNC(=O)c2cccc(-c3noc(C)n3)c2)nc1C [Compound 13, Ethyl 4-Methyl-2-(3-(3-(5-methyl-1,2,4-oxadiazol-3-yl)benzamido)propanamido)thiazole-5-carboxylate]
LE [1, 6]: 0.33
LLE [1, 7]: 4.6
pIC50 [1, 8]: 7.20
pIC50 [1, 9]: 7.20
pIC50 [2]: < 3.70
% multipolarity above baseline @ 15 μM (4NCA cells) [3, 10]: 9%
% multipolarity above baseline @ 15 μM (4NCA cells) [3, 11]: 9%
increase in mitotic spindle multipolarity (4NCA) ([3]; 15 μM, centrosome-amplified (4NCA) DLD1 cell line): ~10%
% Multipolarity above baseline @ 15 mM (4N cells) ([4]; 15 μM): 1%
effect on multipolar mitoses (4N), in words ([4]; 15 μM, non-centrosome amplified DLD1 (4N) cell line): no increases in multipolar mitoses
% multipolarity above baseline @ 15 μM (4N cells) [4]: 1%

Compound: CCOC(=O)c1sc(NC(=O)CCNC(=O)c2cccc(C)c2)nc1C [Compound 2, Ethyl 4-Methyl-2-(3-(3-methylbenzamido)propanamido)thiazole-5-carboxylate]
ligand efficiency (LE) [1]: 0.30
lipophilic ligand efficiency (LLE) [1]: 2.5
pIC50 ([1]; ATP concentration of 3 μM, read-out: HSET IC50): 5.57
pIC50 ([1]; ATP concentration of 150 μM, read-out: HSET IC50 at higher ATP concentration): 5.15
LE [1, 6]: 0.30
LLE [1, 7]: 2.5
pIC50 [1, 8]: 5.56
pIC50 [1, 9]: 5.56
pIC50 [2]: < 3.70
inhibition at 200 µM ([2]; top concentration of 200 μM): 10%
% multipolarity above baseline @ 15 μM (4NCA cells) [3, 10]: 0%
% multipolarity above baseline @ 15 μM (4NCA cells) [3, 11]: 0%
% Multipolarity above baseline @ 15 mM (4N cells) ([4]; 15 μM): 1%
% multipolarity above baseline @ 15 μM (4N cells) [4]: 1%

Compound: CCOC(=O)c1sc(NC(=O)CCNC(=O)c2ccc(C)cc2)nc1C [Compound 4, Ethyl 4-Methyl-2-(3-(4-methylbenzamido)propanamido)thiazole-5-carboxylate]
pIC50 ([1]; 3 μM ATP, curve plateaued, read-out: mean concentration observed at 50% inhibition (HSET ADP-Glo)): 4.89
LE [1, 6]: 0.29
LLE [1, 7]: 2.2
pIC50 [1, 9]: 5.33

Compound: CCOC(=O)c1sc(NC(=O)CCNC(=O)c2cccc(-c3nnc(C)o3)c2)nc1C [Compound 16, Ethyl 4-Methyl-2-(3-(3-(5-methyl-1,3,4-oxadiazol-2-yl)benzamido)propanamido)thiazole-5-carboxylate]
LE [1, 6]: 0.3
LLE [1, 7]: 4.4
pIC50 [1, 9]: 6.59

Compound: CCOC(=O)c1sc(NC(=O)CCNC(C)=O)nc1C [Compound 8, ethyl 2-(3-acetamidopropanamido)-4-methylthiazole-5-carboxylate]
HSET inhibitory activity (in words) ([1]; HSET ADP-Glo): ablated the activity
pIC50 [1, 9]: < 3.70
